Experimental data published in patent publication US5220001A, “Anthracycline glycoside derivatives” (Zaidan Hojim Biseibutsu Dong-A Pharm Co., priority 1989, dated 1993).
Where a name gives a salt, the structure may show the parent alone. Read-outs that look alike come from different tables or passages of the source. Blank lines part the entries; values can stand above or below the compound they belong to.

Legend:
[1] = system: L1210 murine leukemia cells; test: In vitro growth inhibition activity on L1210 murine leukemia cells (tetrazolium-based MTT colorimetric assay); format: cell-based; conditions: Mus musculus
Method: In vitro growth inhibition activity of the compounds of present invention on L1210 murine leukemia cells was assessed by tetrazolium-based colorimetric assay described in Cancer Research Vol. 47, pp. 936-942, February 1987 with some modifications.
L1210 murine leukemia cells in exponential phase were plated at the density of 1×10^5 cells per well in 96-well microliter plates. The cell culture medium was RPMI 1640 (Roswell Park Memorial Institutes 1640) medium supplemented with 10% heat inactivated fetal bovine serum (FBS), 2mM L-glutamine, penicillin G sodium (100 units per ml of medium), and steptomycin sulfate (1 mg per ml of medium). The anthracycline compounds of present invention and doxorubicin hydrochloride were added to give final concentrations from 1 ng per ml to 300 ng per ml, while the control contained no drug.
The cells were incubated for 72 hours at 37.C. in an atmosphere of 10% CO2 and 90% air. At the end of drug exposure, 50 μl MTT(3-(4,5-dimethylthiazol-2-yl)-2,5-diphenyltetrazolium bromide) solution (2 mg per ml in phosphate-buffered saline) was added to each well and cultures were incubated at 37° C. for 4 hours in Co2 incubator. The MTT is reduced to water insoluble MTT formazan(1-(4,5-dimethylthiazol-2-yl)-3,5-diphenylformazan) by mitochondrial succinate dehydrogenase only in living cells. At the end of incubation, 200 μl of supernatant was removed and the MTT formazan crystal was dissolved by adding 200 μl dimethylsulfoxide with mixing them.
The plates were then read immediately at 540 nm on a scanning multiwell spectrophotometer (enzyme-linked immunosorbent assay reader; Biotech Instruments Inc., Burlington, VT). The absorbance value corrected against uninoculated blank values. The absorbance values are directly proportional to the cell numbers in living state. The IC 50 defined a 50% reduction of absorbance against untreated control were calculated from dose-response curve and are shown in Table 2.

[2] = system: L1210 murine leukemia; test: In vivo antitumor activity on DCF1 mice bearing L1210 murine leukemia; conditions: for T/C (%): i.p. days 1, 5, 9, mean survival time vs control, 60-day observation
Method: The in vivo antitumor activity of the compounds of present invention was studied on DCF1 mice bearing L1210 murine leukemia. Healthy female DCF1 mice were inoculated by intraperitoneal injection with 1×10^5 L1210 leukemia cells per animal. The inoculated mice were then treated intraperitoneally on the days 1, 5, 9 beginning on day 1, 24 hours after inoculation of the leukemia cells with various doses of test compounds. Doxorubicin hydrochloride was administered for comparison. All test compounds and doxorubicin hydrochloride were dissolved in filtered (0.22 μm) distilled water. […] The results are shown in Table 1 where T/C(%) values are determined by dividing the mean survival time of the treated mice by that of the control mice, the quotient so obtained being multiplied by 100. The survival time of the mice which survived more than 60 days after tumor inoculation was scored as 60 days. An increase on the T/C(%) indicates an increase in the antitumor activity of the compound.

[3] = L1210 cells, 72 hours, MTT, 50% reduction of absorbance against untreated control, read-out: IC50

SMILES: COc1cccc2c1C(=O)c1c(O)c3c(c(O)c1C2=O)C[C@@](O)(C(=O)CO)C[C@@H]3O[C@H]1C[C@H](N)[C@H](O)[C@H](C)O1 [Doxorubicin hydrochloride, reference compound]
- IC50 ([1]; L1210, 72 h): 0.0373 µg/mL
- toxicity (decrease in T/C(%) at high dose) ([2]; 16 mg/kg compared with 8 mg/kg): significant decrease in T/C(%)
- T/C (%) ([2]; dose 0.125 mg/kg): 141%
- T/C (%) ([2]; dose 0.250 mg/kg): 170%
- T/C (%) ([2]; dose 0.500 mg/kg): 218%
- T/C (%) ([2]; dose 1.000 mg/kg): 242%
- T/C (%) ([2]; dose 2.000 mg/kg): 242%
- T/C (%) ([2]; dose 4.000 mg/kg): 469%
- T/C (%) ([2]; dose 8.000 mg/kg): 303%
- T/C (%) ([2]; dose 16.000 mg/kg): 109%

SMILES: COc1cccc2c1C(=O)c1c(O)c3c(c(O)c1C2=O)CC(O)(C(=O)COC(=O)CCN)CC3OC1OC(C)C(O)C(O)C1F [Example 5, 7-0-(2,6-dideoxy-2-fluoro-α-L-talopyranosyl)adriamycinone 14-0-β-alaninate HCl salt]
- IC50 [1, 3]: 0.0101 µg/mL
- T/C (%) ([2]; dose 0.125 mg/kg): 140%
- T/C (%) ([2]; dose 0.250 mg/kg): 162%
- T/C (%) ([2]; dose 0.500 mg/kg): 189%
- T/C (%) ([2]; dose 1.000 mg/kg): 248%
- T/C (%) ([2]; dose 2.000 mg/kg): 361%
- T/C (%) ([2]; dose 4.000 mg/kg): 333%
- T/C (%) ([2]; dose 8.000 mg/kg): 500%
- T/C (%) ([2]; dose 16.000 mg/kg): 636%
- T/C (%) ([2]; dose 32.000 mg/kg): 542%

SMILES: COc1cccc2c1C(=O)c1c(O)c3c(c(O)c1C2=O)CC(O)(C(=O)COC(=O)CCCCCN)CC3OC1OC(C)C(O)C(O)C1F [Example 7, 7-0-(2,6-dideoxy-2 fluoro-α-L-talopyranosyl)adriamycinone 14-0-(6-aminohexanoate) HCl salt]
- IC50 ([1]; L1210, 72 h): 0.0745 µg/mL
- T/C (%) ([2]; dose 0.125 mg/kg): 111%
- T/C (%) ([2]; dose 0.250 mg/kg): 122%
- T/C (%) ([2]; dose 0.500 mg/kg): 168%
- T/C (%) ([2]; dose 1.000 mg/kg): 242%
- T/C (%) ([2]; dose 2.000 mg/kg): 329%
- T/C (%) ([2]; dose 4.000 mg/kg): 348%
- T/C (%) ([2]; dose 8.000 mg/kg): 367%
- T/C (%) ([2]; dose 16.000 mg/kg): 441%
- T/C (%) ([2]; dose 32.000 mg/kg): 663%

SMILES: COc1cccc2c1C(=O)c1c(O)c3c(c(O)c1C2=O)CC(O)(C(=O)COC(=O)C1CCCN1)CC3OC1OC(C)C(O)C(O)C1F [Example 13, 7-0-(2,6-dideoxy-2-fluoro-α-L-talopyranosyl)adriamycinone 14-0-L-prolinate HCl salt]
- IC50 [1, 3]: 0.0163 µg/mL
- T/C (%) ([2]; dose 0.125 mg/kg): 140%
- T/C (%) ([2]; dose 0.250 mg/kg): 159%
- T/C (%) ([2]; dose 0.500 mg/kg): 213%
- T/C (%) ([2]; dose 1.000 mg/kg): 313%
- T/C (%) ([2]; dose 2.000 mg/kg): 367%
- T/C (%) ([2]; dose 4.000 mg/kg): 283%
- T/C (%) ([2]; dose 8.000 mg/kg): 427%
- T/C (%) ([2]; dose 16.000 mg/kg): 635%
- T/C (%) ([2]; dose 32.000 mg/kg): 525%

Now from value to compound, other results behind:

- IC50 [1, 3]: 0.0134 µg/mL
SMILES: COc1cccc2c1C(=O)c1c(O)c3c(c(O)c1C2=O)CC(O)(C(=O)COC(=O)CN)CC3OC1OC(C)C(O)C(O)C1F [Example 3, 7-0-(2,6-dideoxy-2-fluoro-α-L-talopyranosyl)adriamycinone 14-0-glycinate HCl salt]
- cure of tumored mice ([2]; at 32 mg/kg, 16 mg/kg and 8 mg/kg i.p.): cured all tumored mice
- T/C (%) ([2]; dose 0.125 mg/kg): 186%
- T/C (%) ([2]; dose 0.250 mg/kg): 238%
- T/C (%) ([2]; dose 0.500 mg/kg): 328%
- T/C (%) ([2]; dose 1.000 mg/kg): 230%
- T/C (%) ([2]; dose 2.000 mg/kg): 255%
- T/C (%) ([2]; dose 4.000 mg/kg): 279%
- T/C (%) ([2]; dose 8.000 mg/kg): 727%
- T/C (%) ([2]; dose 16.000 mg/kg): 727%
- T/C (%) ([2]; dose 32.000 mg/kg): 727%

- IC50 [1, 3]: 0.0143 µg/mL
SMILES: COc1cccc2c1C(=O)c1c(O)c3c(c(O)c1C2=O)CC(O)(C(=O)COC(=O)C(C)N)CC3OC1OC(C)C(O)C(O)C1F [Example 9, 7-0-(2,6-dideoxy-2-fluoro-α-L-talopyranosyl)adriamycinone 14-0-L-alaninate HCl salt]
- T/C (%) ([2]; dose 0.125 mg/kg): 171%
- T/C (%) ([2]; dose 0.250 mg/kg): 190%
- T/C (%) ([2]; dose 0.500 mg/kg): 244%
- T/C (%) ([2]; dose 1.000 mg/kg): 287%
- T/C (%) ([2]; dose 2.000 mg/kg): 356%
- T/C (%) ([2]; dose 4.000 mg/kg): 468%
- T/C (%) ([2]; dose 8.000 mg/kg): 488%
- T/C (%) ([2]; dose 16.000 mg/kg): 660%
- T/C (%) ([2]; dose 32.000 mg/kg): 727%

- IC50 [1, 3]: 0.0155 µg/mL
SMILES: COc1cccc2c1C(=O)c1c(O)c3c(c(O)c1C2=O)CC(O)(C(=O)COC(=O)C(N)C(C)C)CC3OC1OC(C)C(O)C(O)C1F [Example 11, 7-0-(2,6-dideoxy-2-fluoro-α-L-talopyranosyl)adriamycinone 14-0-L-valinate HCl salt]
- T/C (%) ([2]; dose 0.125 mg/kg): 150%
- T/C (%) ([2]; dose 0.250 mg/kg): 168%
- T/C (%) ([2]; dose 0.500 mg/kg): 226%
- T/C (%) ([2]; dose 1.000 mg/kg): 298%
- T/C (%) ([2]; dose 2.000 mg/kg): 492%
- T/C (%) ([2]; dose 4.000 mg/kg): 559%
- T/C (%) ([2]; dose 8.000 mg/kg): 586%
- T/C (%) ([2]; dose 16.000 mg/kg): 727%
- T/C (%) ([2]; dose 32.000 mg/kg): 252%
